Laboratory results from ChEMBL document CHEMBL4145589, “Aminoisoxazoles as Potent Inhibitors of Tryptophan 2,3-Dioxygenase 2 (TDO2)” (ACS Med Chem Lett, 2018).

Legend:
[1] = test system: A 172; test: Cytotoxicity against human A172 cells assessed as reduction in cell viability up to 25 uM by Cell Titer-Glo based luminescence assay
[2] = biological target: T1, Tryptophan 2,3-dioxygenase (Homo sapiens, UniProt P48775); test: Inhibition of TDO2 in human SW48 cells assessed as decrease in conversion of tryptophan to N-formylkynurenine after 30 mins by fluorescence assay; format: cell-based
[3] = test system: SW48; test: Cytotoxicity against human SW48 cells assessed as reduction in cell viability up to 25 uM by Cell Titer-Glo based luminescence assay
[4] = biological target: T1, Tryptophan 2,3-dioxygenase; test: Inhibition of recombinant human TDO2 assessed as decrease in conversion of L-tryptophan to N-formylkynurenine preincubated for 5 mins followed by 0.2 mM substrate addition measured after 15 mins by RapidFire mass spectrometry based fluorescence assay
[5] = Metabolic stability in dog whole blood assessed as parent compound remaining at 0.5 mM after 2 hrs by LC-MS/MS analysis; format: ADME, tissue-based, Canis lupus familiaris; details: read-out: Stability
[6] = Metabolic stability in human whole blood assessed as parent compound remaining at 0.5 mM after 2 hrs by LC-MS/MS analysis; format: ADME, tissue-based; details: read-out: Stability
[7] = Metabolic stability in rat whole blood assessed as parent compound remaining at 0.5 mM after 2 hrs by LC-MS/MS analysis; format: ADME, tissue-based; details: read-out: Stability
[8] = biological target: T1, Tryptophan 2,3-dioxygenase; test: Competitive inhibition of recombinant human TDO2 assessed as decrease in conversion of L-tryptophan to N-formylkynurenine preincubated for 5 mins followed by 1 mM substrate addition measured after 15 mins by RapidFire mass spectrometry based fluorescence assay
[9] = biological target: Cytochrome P450 2D6 (Homo sapiens, UniProt P10635); test: Inhibition of CYP2D6 (unknown origin); format: ADME
[10] = biological target: Cytochrome P450 2C9 (Homo sapiens, UniProt P11712); test: Inhibition of CYP2C9 (unknown origin); format: ADME
[11] = biological target: Cytochrome P450 2C19 (Homo sapiens, UniProt P33261); test: Inhibition of CYP2C19 (unknown origin); format: ADME
[12] = biological target: T2, Cytochrome P450 1A2 (Homo sapiens, UniProt P05177); test: Inhibition of CYP1A2 (unknown origin); format: ADME
T2 sequence (P05177 whole entry): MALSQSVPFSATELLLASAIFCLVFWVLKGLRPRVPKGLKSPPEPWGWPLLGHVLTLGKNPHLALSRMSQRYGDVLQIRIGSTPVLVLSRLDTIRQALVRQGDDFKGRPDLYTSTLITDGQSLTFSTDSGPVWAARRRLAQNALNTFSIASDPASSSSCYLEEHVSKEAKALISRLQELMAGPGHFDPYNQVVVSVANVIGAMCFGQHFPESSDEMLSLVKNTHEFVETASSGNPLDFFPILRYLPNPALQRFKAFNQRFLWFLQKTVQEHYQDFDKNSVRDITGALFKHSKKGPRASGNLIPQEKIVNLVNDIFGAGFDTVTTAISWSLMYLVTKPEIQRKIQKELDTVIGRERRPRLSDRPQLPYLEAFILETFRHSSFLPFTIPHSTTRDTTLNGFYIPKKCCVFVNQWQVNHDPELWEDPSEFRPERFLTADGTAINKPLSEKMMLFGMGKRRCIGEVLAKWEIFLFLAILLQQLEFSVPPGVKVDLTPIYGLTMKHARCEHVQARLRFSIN

[13] = biological target: Cytochrome P450 3A4 (Homo sapiens, UniProt P08684); test: Inhibition of CYP3A4 (unknown origin); format: ADME
[14] = Metabolic stability in rat whole blood assessed as parent compound remaining at 0.5 mM after 30 mins by LC-MS/MS analysis; format: ADME, tissue-based; details: read-out: Stability
[15] = Metabolic stability in dog whole blood assessed as parent compound remaining at 0.5 mM after 30 mins by LC-MS/MS analysis; format: ADME, tissue-based, Canis lupus familiaris; details: read-out: Stability

T1 sequence (P48775 whole entry): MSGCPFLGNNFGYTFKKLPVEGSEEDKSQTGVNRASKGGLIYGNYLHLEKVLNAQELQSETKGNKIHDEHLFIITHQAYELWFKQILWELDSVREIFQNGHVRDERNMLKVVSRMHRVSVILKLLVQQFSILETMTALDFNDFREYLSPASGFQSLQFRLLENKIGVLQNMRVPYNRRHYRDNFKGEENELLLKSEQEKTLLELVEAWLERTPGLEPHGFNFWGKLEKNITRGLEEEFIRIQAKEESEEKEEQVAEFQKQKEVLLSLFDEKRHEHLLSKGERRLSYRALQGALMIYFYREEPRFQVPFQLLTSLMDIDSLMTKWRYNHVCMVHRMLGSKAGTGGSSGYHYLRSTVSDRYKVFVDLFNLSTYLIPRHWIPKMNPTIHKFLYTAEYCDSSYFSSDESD
Chain of Cytochrome P450 3A4 (P08684 whole entry): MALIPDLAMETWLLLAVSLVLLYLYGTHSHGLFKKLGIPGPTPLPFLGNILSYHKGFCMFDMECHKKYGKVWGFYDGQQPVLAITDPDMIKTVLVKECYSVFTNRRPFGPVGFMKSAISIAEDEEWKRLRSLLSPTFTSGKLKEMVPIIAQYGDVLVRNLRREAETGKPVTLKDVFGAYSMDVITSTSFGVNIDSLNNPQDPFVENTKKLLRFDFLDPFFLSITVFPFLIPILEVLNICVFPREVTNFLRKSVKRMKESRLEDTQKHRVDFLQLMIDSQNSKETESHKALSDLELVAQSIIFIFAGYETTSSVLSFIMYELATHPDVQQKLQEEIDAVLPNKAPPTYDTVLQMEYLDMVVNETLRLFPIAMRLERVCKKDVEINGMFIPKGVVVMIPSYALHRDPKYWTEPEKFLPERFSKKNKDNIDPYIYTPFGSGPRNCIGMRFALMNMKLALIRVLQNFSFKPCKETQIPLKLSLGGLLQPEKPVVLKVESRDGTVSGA
Chain of Cytochrome P450 2C19 (P33261 whole entry): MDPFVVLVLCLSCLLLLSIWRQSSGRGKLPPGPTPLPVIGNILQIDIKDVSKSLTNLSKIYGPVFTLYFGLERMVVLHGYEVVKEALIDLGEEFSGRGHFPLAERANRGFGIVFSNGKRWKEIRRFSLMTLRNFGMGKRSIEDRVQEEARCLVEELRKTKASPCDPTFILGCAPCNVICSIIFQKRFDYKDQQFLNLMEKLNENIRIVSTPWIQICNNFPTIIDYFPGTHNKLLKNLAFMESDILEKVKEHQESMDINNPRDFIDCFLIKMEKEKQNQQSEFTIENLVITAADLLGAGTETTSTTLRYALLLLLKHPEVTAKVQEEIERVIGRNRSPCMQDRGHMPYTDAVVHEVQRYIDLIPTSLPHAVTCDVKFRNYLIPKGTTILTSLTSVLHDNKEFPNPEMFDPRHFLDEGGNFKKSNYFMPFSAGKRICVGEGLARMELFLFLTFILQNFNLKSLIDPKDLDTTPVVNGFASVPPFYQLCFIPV
Chain of Cytochrome P450 2C9 (P11712 whole entry): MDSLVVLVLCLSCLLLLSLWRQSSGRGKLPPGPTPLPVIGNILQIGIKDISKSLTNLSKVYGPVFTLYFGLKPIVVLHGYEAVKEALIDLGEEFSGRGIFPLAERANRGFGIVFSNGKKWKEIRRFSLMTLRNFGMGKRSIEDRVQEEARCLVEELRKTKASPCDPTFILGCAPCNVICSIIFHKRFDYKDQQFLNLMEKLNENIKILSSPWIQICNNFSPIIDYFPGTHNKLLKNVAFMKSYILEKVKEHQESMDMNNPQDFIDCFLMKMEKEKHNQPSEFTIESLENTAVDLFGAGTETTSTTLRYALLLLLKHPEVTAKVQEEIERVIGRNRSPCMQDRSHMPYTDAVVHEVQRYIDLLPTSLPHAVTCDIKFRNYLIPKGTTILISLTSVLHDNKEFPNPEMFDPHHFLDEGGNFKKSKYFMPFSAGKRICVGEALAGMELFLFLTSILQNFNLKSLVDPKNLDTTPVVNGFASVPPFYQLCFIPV
Chain of Cytochrome P450 2D6 (P10635 whole entry): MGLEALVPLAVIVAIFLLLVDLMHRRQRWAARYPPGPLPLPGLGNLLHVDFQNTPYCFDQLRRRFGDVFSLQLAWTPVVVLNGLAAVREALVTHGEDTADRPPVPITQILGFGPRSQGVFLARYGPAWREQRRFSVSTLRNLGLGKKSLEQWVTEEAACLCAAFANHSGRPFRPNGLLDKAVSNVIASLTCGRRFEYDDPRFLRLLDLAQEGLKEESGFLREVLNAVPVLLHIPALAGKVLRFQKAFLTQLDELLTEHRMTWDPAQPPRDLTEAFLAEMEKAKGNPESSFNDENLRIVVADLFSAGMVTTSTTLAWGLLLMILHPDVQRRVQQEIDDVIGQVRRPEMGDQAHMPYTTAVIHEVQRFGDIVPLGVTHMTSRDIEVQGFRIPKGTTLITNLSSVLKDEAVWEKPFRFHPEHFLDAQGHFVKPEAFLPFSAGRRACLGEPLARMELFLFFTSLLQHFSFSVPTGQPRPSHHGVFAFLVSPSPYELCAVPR

Row | SMILES | Activity [1] | EC50 [2] [nM] | Activity [3] | IC50 [4] [nM] | other results
1 | Nc1[nH]ncc1-c1ccccc1 | Non-Toxic | > 25000 | Non-Toxic | > 25000 | –
2 | Cc1noc(N)c1-c1ccccc1 | Non-Toxic | 9700 | Non-Toxic | – | remaining at 2 h, 500 µM [5]: 65%; remaining at 2 h, 500 µM [6]: 84%; remaining at 2 h, 500 µM [7]: 50%
3 | Nc1oncc1C1CCCCC1 | Non-Toxic | 1500 | Non-Toxic | 7800 | –
4 | Nc1cnsc1-c1ccccc1 | Non-Toxic | > 25000 | Non-Toxic | > 25000 | –
5 | Nc1oncc1-c1ccc(Cl)cc1 | Non-Toxic | 950 | Non-Toxic | 830 | IC50 [8]: 4.21 µM
6 | NC(=O)c1oncc1-c1ccccc1 | Non-Toxic | > 25000 | Non-Toxic | > 25000 | –
7 | Nc1cnoc1-c1ccccc1 | Non-Toxic | > 25000 | Non-Toxic | > 25000 | –
8 | COc1cccc(-c2cnoc2N)c1 | Non-Toxic | 1500 | Non-Toxic | 3100 | –
9 | CNc1oncc1-c1ccccc1 | Non-Toxic | 670 | Non-Toxic | 190 | remaining at 2 h, 500 µM [5]: 0.1%; remaining at 2 h, 500 µM [6]: 0.3%; remaining at 2 h, 500 µM [7]: 0.1%
10 | Nc1snnc1-c1ccccc1 | Non-Toxic | > 25000 | Non-Toxic | > 25000 | –
11 | OCc1oncc1-c1ccccc1 | Non-Toxic | 18000 | Non-Toxic | 4400 | –
12 | Nc1oncc1-c1ccccn1 | Non-Toxic | 820 | Non-Toxic | 1700 | –
13 | Nc1oncc1-c1cccs1 | Non-Toxic | 810 | Non-Toxic | 29 | –
14 | Nc1oncc1-c1ccccc1 | Non-Toxic | 85 | Non-Toxic | 140 | remaining at 2 h, 500 µM [5]: 0%; IC50 [9]: > 10 µM; IC50 [10]: > 10 µM; IC50 [11]: > 10 µM; IC50 [12]: > 10 µM; remaining at 2 h, 500 µM [6]: 0%; remaining at 2 h, 500 µM [7]: 0%; IC50 [13]: > 10 µM
15 | Nc1oncc1-n1cc(F)cn1 | Non-Toxic | 77 | Non-Toxic | 340 | IC50 [9]: > 10 µM; IC50 [10]: > 10 µM; IC50 [11]: > 10 µM; IC50 [12]: > 10 µM; remaining at 2 h, 500 µM [6]: 91%; IC50 [13]: > 10 µM
16 | Nc1oncc1C1CCCC1 | Non-Toxic | 360 | Non-Toxic | 640 | –
17 | Nc1cnnn1-c1ccccc1 | Non-Toxic | > 25000 | Non-Toxic | > 25000 | –
18 | CNC(=O)c1oncc1-c1ccccc1 | Non-Toxic | > 25000 | Non-Toxic | > 25000 | –
19 | Nc1nncn1-c1ccccc1 | Non-Toxic | > 25000 | Non-Toxic | > 25000 | –
20 | Nc1oncc1-n1cccn1 | Non-Toxic | 230 | Non-Toxic | 290 | IC50 [9]: > 10 µM; IC50 [10]: > 10 µM; IC50 [11]: > 10 µM; IC50 [12]: > 10 µM; IC50 [13]: > 10 µM
21 | Cn1ncc(-c2ccccc2)c1N | Non-Toxic | > 25000 | Non-Toxic | > 25000 | –
22 | Nc1oncc1-c1cccc(Cl)c1 | Non-Toxic | 250 | Non-Toxic | 500 | IC50 [8]: 2.94 µM
23 | Nc1oncc1-c1ccc(F)cc1 | Non-Toxic | 210 | Non-Toxic | 580 | –
24 | Nc1sncc1-c1ccccc1 | Non-Toxic | > 25000 | Non-Toxic | 18000 | –
25 | c1ccc(-c2cnoc2)cc1 | Non-Toxic | > 25000 | Non-Toxic | > 25000 | –
26 | Nc1oncc1-c1ccsc1 | Non-Toxic | 99 | Non-Toxic | 28 | IC50 [9]: > 10 µM; IC50 [10]: > 10 µM; remaining at 0.5 h, 500 µM [14]: 3%; IC50 [11]: > 10 µM; IC50 [12]: > 10 µM; remaining at 0.5 h, 500 µM [15]: 3%; IC50 [13]: > 10 µM
27 | Nc1nnsc1-c1ccccc1 | Non-Toxic | > 25000 | Non-Toxic | 270 | –
28 | Cc1ccn(-c2cnoc2N)n1 | Non-Toxic | 810 | Non-Toxic | 1600 | –
29 | Nc1oncc1-c1cccnc1 | Non-Toxic | 1400 | Non-Toxic | 2300 | –
30 | Cc1cnn(-c2cnoc2N)c1 | Non-Toxic | 340 | Non-Toxic | 1600 | –
